Test results reported in patent US20230158161A1, “DRUG DELIVERY SYSTEMS COMPRISING AN INTRAOCULAR PRESSURE LOWERING AGENT, A NEUROTROPHIC AGENT, A C-TYPE NATRIURETIC PEPTIDE, A NATRIURETIC PEPTIDE RECEPTOR-B, AN APOPTOSIS SIGNALING FRAGMENT INHIBITOR OR A FAS-LIGAND INHIBITOR FOR TREATING GLAUCOMA OR OCULAR HYPERTENSION” (Cella Therapeutics, LLC, priority 2020, published 2023).

Test system: African Green monkeys
Assay: IOP after intravitreal injection in African Green monkeys, PBS in the fellow eye as control
Assay type: in vivo, African Green monkey
Protocol: Eight African Green monkeys were screened to identify 4 animals with high-normal IOP. Animals were anesthetized with ketamine 10 mg/kg and Xylazine 0.5 mg/kg. Bimatoprost acid 100 ng in 50 μl was injected intravitreally in one eye through a 30-gauge syringe using a shelved technique, and 50 μl of phosphate buffered saline (PBS) was injected into the fellow eye as a concurrent control on days 0, 1, 2 at 8:30 pm. The bimatoprost acid dose was escalated to 200 ng in 100 μl, with the same volume of PBS given to the fellow eye, on days 3 (8:30 pm) and 4 (5:30 pm). IOP was measured with a Tonovet tonometer at 8:30 am, 11:30 am and 8:30 pm on day 1; 8:30 am, 11:30 am and 5:30 pm on day 4; and at 8:30 am on days 2, 3 and 5. The person measuring the IOP was masked to treatment assignment. Slit lamp exams were performed on day 0, 1 and 5. OCTs were performed at baseline and day 5.

O=C(O)CCC/C=C\C[C@@H]1[C@@H](/C=C/[C@@H](O)CCc2ccccc2)[C@H](O)C[C@@H]1O [bimatoprost acid] was tested, and the “reduction in IOP compared with the fellow eye” value (100 ng intravitreal, one of four animals (B392) responded, at 1 timepoint) was 30%, the “IOP reduced in the treated eye compared with the fellow eye receiving PBS” value (200 ng intravitreal, animal B392, day 5) was 52% and the “reduction in IOP compared with the fellow eye” value (200 ng intravitreal, three of four animals responded, at 1 or more timepoints) was 30%. The IOP response (animal B300, 100 ng and 200 ng intravitreal) was “did not respond to either dose” and the “IOP lowering effect, overall conclusion” value (intravitreal, dose-response between the 100 ng and 200 ng doses) was “clear IOP lowering-effect”.
